From patent US20190263799A1, “1H-IMIDAZO[4,5-B]PYRIDINYL AND 2-OXO-2,3-DIHYDRO-1H-IMIDAZO[4,5-B]PYRIDINYL HETEROCYCLIC BET BROMODOMAIN INHIBITORS” (ZENITH EPIGENETICS LTD., priority 2015, published 2019) come the findings set out here.

Read-outs that look alike come from different tables or passages of the source.

One assay concerns cMYC. Nature of the assay: Inhibition of cMYC expression in cancer cell lines (MV4-11, real-time PCR). The assay is classed as cell-based. Conditions: Homo sapiens, read-out: Myc activity. On the procedure: MV4-11 cells (CRL-9591) were plated at a density of 2.5×10^4 cells per well in 96 well U-bottom plates and treated with increasing concentrations of test compound or DMSO (0.1%) in IMDM media containing 10% FBS and penicillin/streptomycin, and incubated for 3 h at 37° C. Triplicate wells were used for each concentration. Cells were pelleted by centrifugation and harvested using the mRNA Catcher PLUS kit according to manufacturer's instructions. The eluted mRNA isolated was then used in a one-step quantitative real-time PCR reaction, using components of the RNA UltraSense™ One-Step Kit (Life Technologies) together with Applied Biosystems TaqMan® primer-probes for cMYC and Cyclophilin. Real-time PCR plates were run on a ViiA™7 real time PCR machine (Applied Biosystems), data were analyzed, normalizing the Ct values for cMYC to an internal control, prior to determining the fold expression of each sample, relative to the control.
On the technique in general: In qPCR the cycle at which signal appears reflects the starting amount.

The subject of a further assay is MV4-11 cells. Put plainly: Inhibition of cell proliferation in cancer cell lines (MV4-11, CellTiter Aqueous One). The assay is classed as cell-based. Conditions: Homo sapiens, read-out: Proliferation activity. On the procedure:
MV4-11 cells (CRL-9591) were plated at a density of 5×10^4 cells per well in 96 well flat bottom plates and treated with increasing concentrations of test compound or DMSO (0.1%) in IMDM media containing 10% FBS and penicillin/streptomycin. Triplicate wells were used for each concentration and a well containing only media was used as a control. Plates were incubated at 37° C., 5% CO2 for 72 h before adding 20 μL of the CellTiter Aqueous One Solution (Promega) to each well and incubating at 37° C., 5% CO2 for an additional 3-4 h. The absorbance was read at 490 nm in a spectrophotometer and the percentage of cell titer relative to DMSO-treated cells was calculated after correcting for background by subtracting the blank well's signal. IC50 values were calculated using the GraphPad Prism software.

Another assay concerns the target T1, BRD4(1) (Homo sapiens, UniProt O60885).
T1 construct: N-terminally His-tagged bromodomains (BRD4(1) at 20 nM and BRD4(2) at 100 nM); made in house; host or cells: E. coli BL21(DE3)
Nature of the assay: Inhibition of tetra-acetylated histone H4 binding to individual BET bromodomains (AlphaScreen). Conditions: His-tagged BRD4(1) 20 nM, biotinylated tetra-acetylated histone H4 peptide, 30 min incubation; read-out: FRET activity BRD4(1). On the procedure:
Proteins were cloned and overexpressed with a N-terminal 6×His tag, then purified by nickel affinity followed by size exclusion chromatography. Briefly, E. coli BL21(DE3) cells were transformed with a recombinant expression vector encoding N-terminally Nickel affinity tagged bromodomains from Brd2, Brd3, Brd4. Cell cultures were incubated at 37° C. with shaking to the appropriate density and induced overnight with IPTG. The supernatant of lysed cells was loaded onto Ni-IDA column for purification. Eluted protein was pooled, concentrated and further purified by size exclusion chromatography. Fractions representing monomeric protein were pooled, concentrated, aliquoted, and frozen at −80° C. for use in subsequent experiments.
Binding of tetra-acetylated histone H4 peptide (Millipore) and BET bromodomains was confirmed by Amplified Luminescent Proximity Homogenous Assay (AlphaScreen). N-terminally His-tagged bromodomains (BRD4(1) at 20 nM and BRD4(2) at 100 nM) and biotinylated tetra-acetylated histone H4 (10-25 nM) were incubated in the presence of nickel chelate acceptor beads and streptavidin donor beads (PerkinAlmer, 6760000K) added to a final concentration of 2 μg/mL under green light in a white 96 well microtiter plate (Greiner). For inhibition assays, serially diluted compounds were added to the reaction mixtures in a 0.1% final concentrations of DMSO. Final buffer concentrations were 50 mM HEPES, 100 mM NaCl and 0.1% BSA buffer, pH 7.4 and optimized to 30 min incubation time. Assay plates were read at 570 nm on a Synergy H4 Plate Reader (Biotek). IC50 values were determined from a dose response curve.

Setting [1] is: MV4-11 cells, 3 h incubation, cMYC mRNA.

Turning to `COC(=O)N(C)c1cnc2nc(N3CCCC3)n(Cc3ccccc3)c2c1` [Example 30, Methyl (1-benzyl-2-(pyrrolidin-1-yl)-1H-imidazo[4,5-b]pyridin-6-yl)(methyl) carbamate], the IC50 was 300 to 3000 nM in the assay on cMYC (MV4-11, 3 h); 300 to 3000 nM in the assay on MV4-11 cells (MV4-11, 72 h); at most 300 nM at BRD4(1).
As for `CNC(=O)N(C)c1cnc2nc(N3CCCC3)n(Cc3ccccc3)c2c1` [Example 31, 1-(1-Benzyl-2-(pyrrolidin-1-yl)-1H-imidazo[4,5-b]pyridin-6-yl)-1,3-dimethylurea], the IC50 lay within 300 to 3000 nM in the assay on cMYC (setting [1]); 3000 to 30000 nM in the assay with MV4-11 cells (MV4-11 cells, 72 h incubation); 300 to 3000 nM at BRD4(1).
In the case of `CN(C(=O)CO)c1cnc2nc(N3CCCC3)n(Cc3ccccc3)c2c1` [Example 32, N-(1-Benzyl-2-(pyrrolidin-1-yl)-1H-imidazo[4,5-b]pyridin-6-yl)-2-hydroxy-N-methylacetamide], the IC50 with cMYC (setting [1]) lay within 3000 to 30000 nM; with MV4-11 cells (MV4-11 cells, 72 h incubation), 3000 to 30000 nM; on BRD4(1), 300 to 3000 nM.
For `CC(C)C(=O)N(C)c1cnc2nc(N3CCCC3)n(Cc3ccccc3)c2c1` [Example 33, N-(1-Benzyl-2-(pyrrolidin-1-yl)-1H-imidazo[4,5-b]pyridin-6-yl)-N-methylisobutyramide], the IC50 in the assay with cMYC (setting [1]) fell in the range of 300 to 3000 nM; in the assay with MV4-11 cells (MV4-11 cells, 72 h incubation) it was 3000 to 30000 nM; at BRD4(1), 300 to 3000 nM.
In the case of `C[C@H](O)C(=O)N(C)c1cnc2nc(N3CCCC3)n(Cc3ccccc3)c2c1` [Example 34, (S)—N-(1-Benzyl-2-(pyrrolidin-1-yl)-1H-imidazo[4,5-b]pyridin-6-yl)-2-hydroxy-N-methylpropanamide], the IC50 was 300 to 3000 nM with cMYC (setting [1]); 300 to 3000 nM with MV4-11 cells (MV4-11 cells, 72 h incubation); at most 300 nM at BRD4(1).
On to `CN(C)C(=O)N(C)c1cnc2nc(N3CCCC3)n(Cc3ccccc3)c2c1` [Example 35, 1-(1-Benzyl-2-(pyrrolidin-1-yl)-1H-imidazo[4,5-b]pyridin-6-yl)-1,3,3-trimethylurea], for which the IC50 lay within 3000 to 30000 nM in the assay with cMYC (MV4-11, 3 h); 3000 to 30000 nM in the assay with MV4-11 cells (MV4-11, 72 h); 300 to 3000 nM at BRD4(1).
For the compound `CCOC(=O)N(C)c1cnc2nc(N3CCCC3)n(Cc3ccccc3)c2c1` [Example 36, Ethyl (1-benzyl-2-(pyrrolidin-1-yl)-1H-imidazo[4,5-b]pyridin-6-yl)(methyl)carbamate], the IC50 in the assay on cMYC (MV4-11, 3 h) was 300 to 3000 nM; in the assay with MV4-11 cells (MV4-11, 72 h), 300 to 3000 nM; at BRD4(1), at most 300 nM.
Consider `CC(C)OC(=O)N(C)c1cnc2nc(N3CCCC3)n(Cc3ccccc3)c2c1` [Example 37, Isopropyl (1-benzyl-2-(pyrrolidin-1-yl)-1H-imidazo[4,5-b]pyridin-6-yl)(methyl)carbamate], for which the IC50 fell in the range of 300 to 3000 nM in the assay on cMYC (MV4-11, 3 h); 3000 to 30000 nM in the assay on MV4-11 cells (MV4-11, 72 h); 300 to 3000 nM at BRD4(1).
On to `C=CC(=O)N(C)c1cnc2nc(N3CC[C@H](N(C)C)C3)n(Cc3ccccc3)c2c1` [Example 38, (S)—N-(1-Benzyl-2-(3-(dimethylamino)pyrrolidin-1-yl)-1H-imidazo[4,5-b]pyridin-6-yl)-N-methylacrylamide], for which the IC50 in the assay on cMYC (setting [1]) is 300 to 3000 nM; with MV4-11 cells (MV4-11 cells, 72 h incubation), 300 to 3000 nM; at BRD4(1), at most 300 nM.
Turning to `C=CC(=O)N(C)c1cnc2nc(N3CC[C@@H](N(C)C)C3)n(Cc3ccccc3)c2c1` [Example 39, (R)—N-(1-Benzyl-2-(3-(dimethylamino)pyrrolidin-1-yl)-1H-imidazo[4,5-b]pyridin-6-yl)-N-methylacrylamide], the IC50 is 300 to 3000 nM in the assay with cMYC (setting [1]); 300 to 3000 nM with MV4-11 cells (MV4-11 cells, 72 h incubation); at most 300 nM at BRD4(1).
In the case of `C=CC(=O)N(C)c1cnc2nc(NC3CCN(C)CC3)n(Cc3ccccc3)c2c1` [Example 40, N-(1-Benzyl-2-((1-methylpiperidin-4-yl)amino)-1H-imidazo[4,5-b]pyridin-6-yl)-N-methylacrylamide], the IC50 in the assay on cMYC (MV4-11, 3 h) is 3000 to 30000 nM; in the assay with MV4-11 cells (MV4-11, 72 h) it was 3000 to 30000 nM; on BRD4(1), at most 300 nM.
Regarding `C=CC(=O)N(C)c1cnc2nc(N3CC[C@@H](O)C3)n(Cc3ccccc3)c2c1` [Example 41, (R)—N-(1-Benzyl-2-(3-hydroxypyrrolidin-1-yl)-1H-imidazo[4,5-b]pyridin-6-yl)-N-methylacrylamide], the IC50 in the assay on cMYC (MV4-11, 3 h) was 3000 to 30000 nM; with MV4-11 cells (MV4-11, 72 h), 3000 to 30000 nM; on BRD4(1) it was at most 300 nM.
`C=CC(=O)N(C)c1cnc2nc(N3CC(O)C3)n(Cc3ccccc3)c2c1` [Example 42, N-(1-Benzyl-2-(3-hydroxyazetidin-1-yl)-1H-imidazo[4,5-b]pyridin-6-yl)-N-methylacrylamide]: the IC50 is 3000 to 30000 nM in the assay with cMYC (MV4-11, 3 h); 3000 to 30000 nM in the assay with MV4-11 cells (MV4-11, 72 h); at most 300 nM at BRD4(1).
With `C=CC(=O)N(C)c1cnc2nc(N3CC[C@H](NC(C)=O)C3)n(Cc3ccccc3)c2c1` [Example 43, (S)—N-(2-(3-Acetamidopyrrolidin-1-yl)-1-benzyl-1H-imidazo[4,5-b]pyridin-6-yl)-N-methylacrylamide], the IC50 in the assay with cMYC (setting [1]) is 3000 to 30000 nM; with MV4-11 cells (MV4-11 cells, 72 h incubation), 3000 to 30000 nM; on BRD4(1), at most 300 nM.
Turning to `C=CC(=O)N(C)c1cnc2nc(N3CC[C@@H](NC(C)=O)C3)n(Cc3ccccc3)c2c1` [Example 44, (R)—N-(2-(3-Acetamidopyrrolidin-1-yl)-1-benzyl-1H-imidazo[4,5-b]pyridin-6-yl)-N-methylacrylamide], the IC50 was 300 to 3000 nM in the assay on cMYC (setting [1]); 3000 to 30000 nM with MV4-11 cells (MV4-11 cells, 72 h incubation); at most 300 nM on BRD4(1).
The matching figures for `C=CC(=O)N(C)c1cnc2nc(N3CC[C@@H](CO)C3)n(Cc3ccccc3)c2c1` [Example 45, (R)—N-(1-Benzyl-2-(3-(hydroxymethyl)pyrrolidin-1-yl)-1H-imidazo[4,5-b]pyridin-6-yl)-N-methylacrylamide]: 300 to 3000 nM, 300 to 3000 nM and at most 300 nM.
The matching figures for `C=CC(=O)N(C)c1cnc2nc(N3CC[C@H](O)C3)n(Cc3ccccc3)c2c1` [Example 46, (S)—N-(1-Benzyl-2-(3-hydroxypyrrolidin-1-yl)-1H-imidazo[4,5-b]pyridin-6-yl)-N-methylacrylamide]: 300 to 3000 nM, 300 to 3000 nM and at most 300 nM.
The like results for `C=CC(=O)N(C)c1cnc2nc(N3CC(N(C)C)C3)n(Cc3ccccc3)c2c1` [Example 47, N-(1-Benzyl-2-(3-(dimethylamino)azetidin-1-yl)-1H-imidazo[4,5-b]pyridin-6-yl)-N-methylacrylamide] were, in that order, 300 to 3000 nM, 3000 to 30000 nM and at most 300 nM.
With `C=CC(=O)N(C)c1cnc2nc(N3Cc4cnn(C)c4C3)n(Cc3ccccc3)c2c1` [Example 48, N-(1-Benzyl-2-(1-methylpyrrolo[3,4-c]pyrazol-5(1H,4H,6H)-yl)-1H-imidazo[4,5-b]pyridin-6-yl)-N-methylacrylamide], the IC50 is 300 to 3000 nM with cMYC (setting [1]); 300 to 3000 nM in the assay on MV4-11 cells (MV4-11 cells, 72 h incubation); at most 300 nM at BRD4(1).
